Experimental data published in patent US20230107642A1 (Erasca, Inc., priority 2020, published 2023).

Target: T1, K-Ras G12C (Homo sapiens, UniProt P01116, G12C)
T1 construct: This protein contained 188 amino acids in total, including an N-terminal 6-Histidine tag; made in house; host or cells: E. coli BL21
Test: CAF assay (% CAF; method in Example 7, not in this part)
Format: binding
Settings: 10 uM compound, 1 h incubation

| SMILES | % CAF @ 10 uM, 1h [%] |
| --- | --- |
| C=CC(=O)N1CCN(c2nc(=O)n3c4c(c(-c5ccc(F)cc5F)c(C(F)(F)F)cc24)S(=O)(=O)C[C@@H]3CC2CCN(CC)CC2)[C@@H](C)C1 [Example 434, (3S)-7-((S)-4-acryloyl-2-methylpiperazin-1-yl)-10-(2,4-difluorophenyl)-3-((1-ethylpiperidin-4-yl)methyl)-9-(trifluoromethyl)-2H-[1,4]thiazino[2,3,4-ij]quinazolin-5(3H)-one 1,1-dioxide] | 51.5 |
| C=CC(=O)N1CCN(c2nc(=O)n3c4c(c(-c5ccc(F)cc5F)c(C(F)(F)F)cc24)SC[C@@H]3COC)[C@@H](C)C1 [Example 435, (3S)-7-((S)-4-acryloyl-2-methylpiperazin-1-yl)-10-(2,4-difluorophenyl)-3-(methoxymethyl)-9-(trifluoromethyl)-2H-[1,4]thiazino[2,3,4-ij]quinazolin-5(3H)-one] | 95.8 |
| C=CC(=O)N1CCN(c2nc(=O)n3c4c(c(-c5ccc(F)cc5F)c(C(F)(F)F)cc24)S(=O)(=O)C[C@@H]3COC)[C@@H](C)C1 [Example 436, (3S)-7-((S)-4-acryloyl-2-methylpiperazin-1-yl)-10-(2,4-difluorophenyl)-3-(methoxymethyl)-9-(trifluoromethyl)-2H-[1,4]thiazino[2,3,4-ij]quinazolin-5(3H)-one 1,1-dioxide] | 72.5 |
| C=CC(=O)N1CCN(c2nc(=O)n3c4c(c(-c5ccc(F)cc5F)c(C(F)(F)F)cc24)SC[C@@H]3CC2CCOCC2)[C@@H](C)C1 [Example 437, (3S)-7-((S)-4-acryloyl-2-methylpiperazin-1-yl)-10-(2,4-difluorophenyl)-3-((tetrahydro-2H-pyran-4-yl)methyl)-9-(trifluoromethyl)-2H-[1,4]thiazino[2,3,4-ij]quinazolin-5(3H)-one] | 95.7 |
| C=CC(=O)N1CCN(c2nc(=O)n3c4c(c(-c5ccc(F)cc5F)c(Cl)cc24)SC[C@@H]3CC2CCOCC2)[C@@H](C)C1 [Example 438, (3S)-7-((S)-4-acryloyl-2-methylpiperazin-1-yl)-9-chloro-10-(2,4-difluorophenyl)-3-((tetrahydro-2H-pyran-4-yl)methyl)-2H-[1,4]thiazino[2,3,4-ij]quinazolin-5(3H)-one] | 92.8 |
| O=C1CC2CN(c3nc(=O)n4c5c(c(-c6ccc(F)cc6F)c(C(F)(F)F)cc35)SCC4)CC(C1)N2C(=O)/C=C/C(F)F [Example 439, (E)-7-(9-(4,4-difluorobut-2-enoyl)-7-oxo-3,9-diazabicyclo[3.3.1]nonan-3-yl)-10-(2,4-difluorophenyl)-9-(trifluoromethyl)-2,3-dihydro-5H-[1,4]thiazino[2,3,4-ij]quinazolin-5-one] | 97 |
| O=C1CC2CN(c3nc(=O)n4c5c(c(-c6ccc(F)cc6F)c(C(F)(F)F)cc35)SCC4)CC(C1)N2C(=O)/C=C/C(F)(F)F [Example 440, (E)-10-(2,4-difluorophenyl)-7-(7-oxo-9-(4,4,4-trifluorobut-2-enoyl)-3,9-diazabicyclo[3.3.1]nonan-3-yl)-9-(trifluoromethyl)-2,3-dihydro-5H-[1,4]thiazino[2,3,4-ij]quinazolin-5-one] | 96 |
| C=CC(=O)N1CCN(c2nc(=O)n3c4c(c(-c5ccc(F)c6cccnc56)c(Cl)cc24)SCC3)[C@@H](C)C1 [Example 441, 7-((S)-4-acryloyl-2-methylpiperazin-1-yl)-9-chloro-10-(5-fluoroquinolin-8-yl)-2,3-dihydro-5H-[1,4]thiazino[2,3,4-ij]quinazolin-5-one] | 78.5 |
| C=CC(=O)N1CCN(c2nc(=O)n3c4c(c(-c5ccc(F)cc5F)c(C(F)(F)F)cc24)S[C@@H](CN(C)C)C3)[C@@H](C)C1 [Example 442, (2S)-7-((S)-4-acryloyl-2-methylpiperazin-1-yl)-10-(2,4-difluorophenyl)-2-((dimethylamino)methyl)-9-(trifluoromethyl)-2,3-dihydro-5H-[1,4]thiazino[2,3,4-ij]quinazolin-5-one] | 87 |
| C=CC(=O)N1C[C@H](C)N(c2nc(=O)n3c4c(c(-c5cc(F)c(F)cc5F)c(C(F)(F)F)cc24)SC[C@@H]3CN2CCN(CC(F)F)CC2)C[C@H]1C [Example 443, (3S)-7-((2S,5R)-4-acryloyl-2,5-dimethylpiperazin-1-yl)-3-((4-(2,2-difluoroethyl)piperazin-1-yl)methyl)-9-(trifluoromethyl)-10-(2,4,5-trifluorophenyl)-2H-[1,4]thiazino[2,3,4-ij]quinazolin-5(3H)-one] | 48.2 |
| C=CC(=O)N1CCN(c2nc(=O)n3c4c(c(-c5ccc(F)cc5)c(Cl)cc24)SC[C@@H]3CN2CCn3c(nnc3C(F)(F)F)C2)[C@@H](C)C1 [Example 444, (S)-7-((S)-4-acryloyl-2-methylpiperazin-1-yl)-9-chloro-10-(4-fluorophenyl)-3-((3-(trifluoromethyl)-5,6-dihydro-[1,2,4]triazolo[4,3-a]pyrazin-7(8H)-yl)methyl)-2H-[1,4]thiazino[2,3,4-ij]quinazolin-5(3H)-one] | 24.1 |
| C=CC(=O)N1C[C@H](C)N(c2nc(=O)n3c4c(c(-c5ccc(F)cc5)c(Cl)cc24)SC[C@@H]3CN2CCn3c(nnc3C(F)(F)F)C2)C[C@H]1C [Example 445, (S)-7-((2S,5R)-4-acryloyl-2,5-dimethylpiperazin-1-yl)-9-chloro-10-(4-fluorophenyl)-3-((3-(trifluoromethyl)-5,6-dihydro-[1,2,4]triazolo[4,3-a]pyrazin-7(8H)-yl)methyl)-2H-[1,4]thiazino[2,3,4-ij]quinazolin-5(3H)-one] | 68.2 |
| C=CC(=O)N1CCN(c2nc(=O)n3c4c(c(-c5cc(Cl)c(F)cc5F)c(Cl)cc24)SC[C@@H]3COCOC)[C@@H](C)C1 [Example 446, (3S)-7-((S)-4-acryloyl-2-methylpiperazin-1-yl)-9-chloro-10-(5-chloro-2,4-difluorophenyl)-3-((methoxymethoxy)methyl)-2H-[1,4]thiazino[2,3,4-ij]quinazolin-5(3H)-one] | 38 |
| C=CC(=O)N1CCN(c2nc(=O)n3c4c(c(-c5cc(Cl)c(F)cc5F)c(Cl)cc24)SC[C@@H]3CN2CCn3c(nnc3C(F)(F)F)C2)[C@@H](C)C1 [Example 447, (3S)-7-((S)-4-acryloyl-2-methylpiperazin-1-yl)-9-chloro-10-(5-chloro-2,4-difluorophenyl)-3-((3-(trifluoromethyl)-5,6-dihydro-[1,2,4]triazolo[4,3-a]pyrazin-7(8H)-yl)methyl)-2H-[1,4]thiazino[2,3,4-ij]quinazolin-5(3H)-one] | 63.3 |
| C=CC(=O)N1C[C@H](C)N(c2nc(=O)n3c4c(c(-c5cc(Cl)c(F)cc5F)c(Cl)cc24)SC[C@@H]3CN2CCn3c(nnc3C(F)(F)F)C2)C[C@H]1C [Example 448, (3S)-7-((2S,5R)-4-acryloyl-2,5-dimethylpiperazin-1-yl)-9-chloro-10-(5-chloro-2,4-difluorophenyl)-3-((3-(trifluoromethyl)-5,6-dihydro-[1,2,4]triazolo[4,3-a]pyrazin-7(8H)-yl)methyl)-2H-[1,4]thiazino[2,3,4-ij]quinazolin-5(3H)-one] | 55 |
| C=CC(=O)N1C[C@H](C)N(c2nc(=O)n3c4c(c(-c5cc(Cl)c(F)cc5F)c(Cl)cc24)SC[C@@H]3CN2CCC3(CC2)COC3)C[C@H]1C [Example 449, (3S)-3-(2-oxa-7-azaspiro[3.5]nonan-7-ylmethyl)-7-((2S,5R)-4-acryloyl-2,5-dimethylpiperazin-1-yl)-9-chloro-10-(5-chloro-2,4-difluorophenyl)-2H-[1,4]thiazino[2,3,4-ij]quinazolin-5(3H)-one] | 51.6 |
| C=CC(=O)N1CCN(c2nc(=O)n3c4c(c(-c5ccc(F)cc5F)c(C(F)(F)F)cc24)SCCC3)[C@@H](C)C1 [Example 450, 8-((S)-4-acryloyl-2-methylpiperazin-1-yl)-11-(2,4-difluorophenyl)-10-(trifluoromethyl)-3,4-dihydro-2H,6H-[1,4]thiazepino[2,3,4-ij]quinazolin-6-one] | 61 |
| C=C(F)C(=O)N1C2CC(=O)CC1CN(c1nc(=O)n3c4c(c(-c5ccc(F)cc5F)c(C(F)(F)F)cc14)SCCC3)C2 [Example 451, 11-(2,4-difluorophenyl)-8-(9-(2-fluoroacryloyl)-7-oxo-3,9-diazabicyclo[3.3.1]nonan-3-yl)-10-(trifluoromethyl)-3,4-dihydro-2H,6H-[1,4]thiazepino[2,3,4-ij]quinazolin-6-one] | 61 |
| C/C=C/C(=O)N1C2CC(=O)CC1CN(c1nc(=O)n3c4c(c(-c5ccc(F)cc5F)c(C(F)(F)F)cc14)SCC3)C2 [Example 452, (E)-7-(9-(but-2-enoyl)-7-oxo-3,9-diazabicyclo[3.3.1]nonan-3-yl)-10-(2,4-difluorophenyl)-9-(trifluoromethyl)-2,3-dihydro-5H-[1,4]thiazino[2,3,4-ij]quinazolin-5-one] | 63 |
| CC#CC(=O)N1C2CC(=O)CC1CN(c1nc(=O)n3c4c(c(-c5ccc(F)cc5F)c(C(F)(F)F)cc14)SCC3)C2 [Example 453, 7-(9-(but-2-ynoyl)-7-oxo-3,9-diazabicyclo[3.3.1]nonan-3-yl)-10-(2,4-difluorophenyl)-9-(trifluoromethyl)-2,3-dihydro-5H-[1,4]thiazino[2,3,4-ij]quinazolin-5-one] | 37 |
| C=CC(=O)N1CCN(c2nc(=O)n3c4c(c(-c5ccc(F)cc5F)c(C(F)(F)F)cc24)SC[C@@H](N(C)CC(F)(F)F)C3)[C@@H](C)C1 [Example 454, (3S)-8-((S)-4-acryloyl-2-methylpiperazin-1-yl)-11-(2,4-difluorophenyl)-3-(methyl(2,2,2-trifluoroethyl)amino)-10-(trifluoromethyl)-3,4-dihydro-2H,6H-[1,4]thiazepino[2,3,4-ij]quinazolin-6-one] | 61 |
| C=CC(=O)N1CCN(c2nc(=O)n3c4c(c(-c5c(F)cc(F)cc5F)c(C(F)(F)F)cc24)SCCC3)[C@@H](C)C1 [Example 455, (S)-8-(4-acryloyl-2-methylpiperazin-1-yl)-10-(trifluoromethyl)-11-(2,4,6-trifluorophenyl)-3,4-dihydro-2H,6H-[1,4]thiazepino[2,3,4-ij]quinazolin-6-one] | 21 |
